Source: ChEMBL document CHEMBL3525989 (Drug Metab Dispos, 2011)

Tests used:
[1] = target: T1, Cytochrome P450 3A4 (Homo sapiens, UniProt P08684); experiment: Inhibition of recombinant CYP3A4 (unknown origin) expressed in baculosomes in presence of 1 mM NADPH and 1 mM nucleophilic trapping agent methyl hydroxylamine; assay type: ADME; details: recombinant enzyme
[2] = target: T1, Cytochrome P450 3A4; experiment: Inhibition of recombinant CYP3A4 (unknown origin) expressed in baculosomes assessed as decrease in CYP3A4-CO binding at 10 uM preincubated for 5 mins measured after […] by LC-tandem mass spectrometry analysis in presence of 1 mM NADPH; assay type: ADME; details: recombinant enzyme
[3] = target: T1, Cytochrome P450 3A4; experiment: Inhibition of recombinant CYP3A4 (unknown origin) expressed in baculosomes in presence of 1 mM NADPH and 1 mM nucleophilic trapping agent N-acetyl lysine; assay type: ADME; details: recombinant enzyme
[4] = target: T1, Cytochrome P450 3A4; experiment: Inhibition of recombinant CYP3A4 (unknown origin) expressed in baculosomes in presence of 1 mM NADPH and 1 mM nucleophilic trapping agent N-acetyl cysteine; assay type: ADME; details: recombinant enzyme
[5] = target: T1, Cytochrome P450 3A4; experiment: Inhibition of recombinant CYP3A4 (unknown origin) expressed in baculosomes in presence of 1 mM NADPH and 1 mM nucleophilic trapping agent dimethyl pyrroline N-oxide; assay type: ADME; details: recombinant enzyme
[6] = target: T2, CYP3A4 (Homo sapiens, UniProt P08684); experiment: Residual activity of recombinant CYP3A4 (unknown origin) expressed in baculosomes at 10 uM measured after 1.5 min in presence of 1 mM NADPH
[7] = target: T1, Cytochrome P450 3A4; experiment: Inhibition of recombinant CYP3A4 (unknown origin) expressed in baculosomes in presence of 1 mM NADPH and 1 mM nucleophilic trapping agent superoxide dismutase; assay type: ADME; details: recombinant enzyme
[8] = target: T1, Cytochrome P450 3A4; experiment: Inhibition of recombinant CYP3A4 (unknown origin) expressed in baculosomes in presence of 1 mM NADPH and 1 mM nucleophilic trapping agent semicarbazide; assay type: ADME; details: recombinant enzyme
[9] = target: T1, Cytochrome P450 3A4; experiment: Inhibition of recombinant CYP3A4 (unknown origin) expressed in baculosomes assessed as decrease in CYP3A4-CO binding at 10 uM preincubated for 5 mins measured after overnight washout with 100 mM potassium phosphate buffer by LC-tandem mass spectrometry analysis in presence of 1 mM NADPH; assay type: ADME; details: recombinant enzyme
[10] = target: T1, Cytochrome P450 3A4; experiment: Inhibition of recombinant CYP3A4 (unknown origin) expressed in baculosomes in presence of 1 mM NADPH and 1 mM nucleophilic trapping agent catalase; assay type: ADME; details: recombinant enzyme
[11] = target: T1, Cytochrome P450 3A4; experiment: Inhibition of recombinant CYP3A4 (unknown origin) expressed in baculosomes in presence of 1 mM NADPH and 1 mM nucleophilic trapping agent glutathione; assay type: ADME; details: recombinant enzyme
[12] = target: T1, Cytochrome P450 3A4; experiment: Inhibition of recombinant CYP3A4 (unknown origin) expressed in baculosomes in presence of 1 mM NADPH and 1 mM nucleophilic trapping agent potassium cyanide; assay type: ADME; details: recombinant enzyme
[13] = target: T1, Cytochrome P450 3A4; experiment: Binding affinity to CYP3A4 (unknown origin); assay type: ADME; details: read-out: Ks
[14] = target: T2, CYP3A4; experiment: (§1) Inhibition of recombinant CYP3A4 (unknown origin) expressed in baculosomes in presence of 1 mM NADPH; assay type: ADME; details: human, recombinant CYP3A4 expressed in baculosomes
[15] = target: T1, Cytochrome P450 3A4; experiment: as §1; assay type: ADME
[16] = target: T2, CYP3A4; experiment: Inhibition of recombinant CYP3A4 (unknown origin) expressed in baculosomes assessed as enzyme remaining activity at 10 uM measured after 1.5 min in presence of 1 mM NADPH; assay type: ADME; details: read-out: Activity

T2 sequence (P08684 whole entry): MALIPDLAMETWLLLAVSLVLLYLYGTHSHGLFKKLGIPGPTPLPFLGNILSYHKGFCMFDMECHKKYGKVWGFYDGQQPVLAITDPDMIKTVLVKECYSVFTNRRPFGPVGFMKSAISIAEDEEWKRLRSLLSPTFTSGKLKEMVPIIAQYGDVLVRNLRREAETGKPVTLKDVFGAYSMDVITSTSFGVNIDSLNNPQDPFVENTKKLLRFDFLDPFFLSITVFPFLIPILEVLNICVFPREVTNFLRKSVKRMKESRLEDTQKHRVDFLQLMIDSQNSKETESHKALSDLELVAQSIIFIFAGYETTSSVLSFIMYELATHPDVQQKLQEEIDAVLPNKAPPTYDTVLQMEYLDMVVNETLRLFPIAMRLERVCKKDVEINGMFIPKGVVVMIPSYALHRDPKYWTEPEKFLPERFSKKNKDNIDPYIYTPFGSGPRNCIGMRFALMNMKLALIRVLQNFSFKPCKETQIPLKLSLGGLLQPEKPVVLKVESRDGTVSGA
T1 sequence (P08684 whole entry): as above

| Kd [13] [nM] | kinact [14] [s⁻¹] | Ki [15] [nM] | activity at 0.025 h, 10 µM [16] [%] | Structure (SMILES) | inhibition (INH) [1] | inhibition (INH) [2] | inhibition (INH) [3] | inhibition (INH) [4] | inhibition (INH) [5] | residual activity at 0.025 h, 10 µM [6] [%] | inhibition (INH) [7] | inhibition (INH) [8] | inhibition (INH) [9] | inhibition (INH) [10] | inhibition (INH) [11] | inhibition (INH) [12] |
| --- | --- | --- | --- | --- | --- | --- | --- | --- | --- | --- | --- | --- | --- | --- | --- | --- |
|  |  |  |  | COCC(=O)O[C@]1(CCN(C)CCCc2nc3ccccc3[nH]2)CCc2cc(F)ccc2[C@@H]1C(C)C [MIBEFRADIL] | Active | Active | Active | Active | Active | < 20 | Active | Active | Active | Active | Active | Active |
| 1390 | 0.00133 | 820 | 60 | CC(C)[C@H]1c2ccc(F)cc2CC[C@]1(O)CCN(C)CCCc1nc2ccccc2[nH]1 |  | Active |  |  |  |  |  |  | Active |  |  |  |
